Measurements reported in PubChem BioAssay AID256 (DTP/NCI, 2004).
Where “and” joins values, the source holds several entries; their conditions need not be identical. Identical values can stand only once. Inconclusive results and toxic doses are left out.

System: CD2F1 mice, L1210 leukemia ip, survival T/C
Test: NCI In Vivo Anticancer Drug Screen. Data for tumor model L1210 Leukemia (intraperitoneal) in CD2F1 (CDF1) mice
Conditions: higher = longer survival
Outline: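 Read-out first: treated-group measurement over vehicle-control measurement, expressed as a ratio. Animals bore a transplanted tumor line and were dosed with compound or vehicle.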

[1] = endpoint: mean survival time, dose: 100.0 mg/kg/injection, schedule: Q01DX009 (ip), vehicle: saline with Tween-80
[2] = endpoint: mean survival time, dose: 200.0 mg/kg/injection, schedule: Q01DX009 (ip), vehicle: saline with Tween-80
[3] = endpoint: mean survival time, dose: 25.0 mg/kg/injection, schedule: Q01DX009 (ip), vehicle: saline with Tween-80
[4] = endpoint: mean survival time, dose: 50.0 mg/kg/injection, schedule: Q01DX009 (ip), vehicle: saline with Tween-80
[5] = endpoint: mean survival time, dose: 100.0 mg/kg/injection, schedule: Q04DX003 (ip), vehicle: saline with Tween-80
[6] = endpoint: mean survival time, dose: 400.0 mg/kg/injection, schedule: Q04DX003 (ip), vehicle: saline with Tween-80
[7] = endpoint: mean survival time, dose: 200.0 mg/kg/injection, schedule: Q04DX003 (ip), vehicle: saline with Tween-80

SMILES: O=S(=O)(O)c1cccc2cnccc12
- T/C [1]: 98 % of control
- T/C (endpoint: mean survival time, dose: 100.0 mg/kg/injection, schedule: Q04DX003 (ip), vehicle: saline sonified): 93 % of control
- T/C [2]: 96 % of control
- T/C (endpoint: mean survival time, dose: 200.0 mg/kg/injection, schedule: Q04DX003 (ip), vehicle: saline sonified): 98 % of control
- T/C (endpoint: mean survival time, dose: 400.0 mg/kg/injection, schedule: Q01DX009 (ip), vehicle: saline with Tween-80): 93 % of control
- T/C (endpoint: mean survival time, dose: 400.0 mg/kg/injection, schedule: Q04DX003 (ip), vehicle: saline sonified): 98 % of control

SMILES: [N-]=[N+]=NCC(=O)N1c2ccccc2Sc2ccccc21
- T/C (endpoint: mean survival time, dose: 12.5 mg/kg/injection, schedule: Q01DX009 (ip), vehicle: other): 95 % of control
- T/C (endpoint: mean survival time, dose: 25.0 mg/kg/injection, schedule: Q01DX009 (ip), vehicle: other): 103 % of control
- T/C (endpoint: mean survival time, dose: 50.0 mg/kg/injection, schedule: Q01DX009 (ip), vehicle: other): 98 % of control
- T/C (endpoint: mean survival time, dose: 100.0 mg/kg/injection, schedule: Q01DX009 (ip), vehicle: other): 101 % of control
- T/C (endpoint: mean survival time, dose: 200.0 mg/kg/injection, schedule: Q01DX009 (ip), vehicle: other): 95 % of control

SMILES: CN(C)N=Nc1ccc(S(=O)(=O)Nc2ncccn2)cc1
- T/C [3]: 120 % of control
- T/C [4]: 124 % of control
- T/C [5]: 113 % of control
- T/C [6]: 157 % of control

SMILES: CC(CC(=O)O)C(NC(=O)OCc1ccccc1)C(=O)O (configuration not stated)
- T/C (endpoint: mean survival time, dose: 75.0 mg/kg/injection, schedule: Q04DX003 (ip), vehicle: saline): 101 % of control
- T/C (endpoint: mean survival time, dose: 150.0 mg/kg/injection, schedule: Q04DX003 (ip), vehicle: saline): 95 % of control
- T/C (endpoint: mean survival time, dose: 300.0 mg/kg/injection, schedule: Q04DX003 (ip), vehicle: saline): 95 % of control

SMILES: O=[N+]([O-])c1ccc(C[P+](c2ccccc2)(c2ccccc2)c2ccccc2)cc1
- T/C (endpoint: mean survival time, dose: 6.25 mg/kg/injection, schedule: Q04DX002 (ip), vehicle: saline with Tween-80): 86 % of control
- T/C (endpoint: mean survival time, dose: 12.5 mg/kg/injection, schedule: Q04DX002 (ip), vehicle: saline with Tween-80): 108 % of control
- T/C (endpoint: mean survival time, dose: 25.0 mg/kg/injection, schedule: Q04DX002 (ip), vehicle: saline with Tween-80): 94 % of control

SMILES: FC(F)(F)/C([S-])=C(/[S-])C(F)(F)F.[Ni].[c-]1[c-][c-][cH-][c-]1
- T/C (endpoint: mean survival time, dose: 9.5 mg/kg/injection, schedule: Q01DX001 (ip), vehicle: other): 92 % of control
- T/C (endpoint: mean survival time, dose: 19.0 mg/kg/injection, schedule: Q01DX001 (ip), vehicle: other): 93 % of control

SMILES: CN(C)CCCN=Cc1ccc(O)cc1O.CN(C)CCCN=Cc1ccc(O)cc1O.[Ni+2]
- T/C (endpoint: mean survival time, dose: 12.5 mg/kg/injection, schedule: Q01DX009 (ip), vehicle: saline with Tween-80): 94 % of control
- T/C [3]: 93 % of control
- T/C [4]: 94 % of control

SMILES: CN1C2CCC1CC(OC(=O)/C=C/C(=O)OC1CC3CCC(C1)N3C)C2 (configuration not stated)
- T/C (endpoint: mean survival time, dose: 75.0 mg/kg/injection, schedule: Q01DX001 (ip), vehicle: saline): 94 % of control
- T/C (endpoint: mean survival time, dose: 150.0 mg/kg/injection, schedule: Q01DX001 (ip), vehicle: saline): 106 % of control
- T/C (endpoint: mean survival time, dose: 300.0 mg/kg/injection, schedule: Q01DX001 (ip), vehicle: saline): 94 % of control

SMILES: CCCCCCCCCCCCC[n+]1ccc(C#N)cc1
- T/C (endpoint: mean survival time, dose: 7.5 mg/kg/injection, schedule: Q01DX001 (ip), vehicle: saline): 102 % of control
- T/C (endpoint: mean survival time, dose: 7.5 mg/kg/injection, schedule: Q01DX009 (ip), vehicle: saline): 107 % of control
- T/C (endpoint: mean survival time, dose: 15.0 mg/kg/injection, schedule: Q01DX001 (ip), vehicle: saline): 94 % of control
- T/C (endpoint: mean survival time, dose: 15.0 mg/kg/injection, schedule: Q01DX009 (ip), vehicle: saline): 101 % of control
- T/C (endpoint: mean survival time, dose: 30.0 mg/kg/injection, schedule: Q01DX001 (ip), vehicle: saline): 97 % of control

SMILES: CN(C)c1ccc(N=Cc2cc[n+](C)cc2)cc1
- T/C (endpoint: mean survival time, dose: 25.0 mg/kg/injection, schedule: Q04DX003 (ip), vehicle: saline): 98 % of control
- T/C (endpoint: mean survival time, dose: 50.0 mg/kg/injection, schedule: Q04DX003 (ip), vehicle: saline): 102 % of control
- T/C (endpoint: mean survival time, dose: 100.0 mg/kg/injection, schedule: Q04DX003 (ip), vehicle: saline): 102 % of control

SMILES: CC1CC[N-]CC1.CC1CC[N-]CC1.[Cl][Pt+2][Cl]
- T/C (endpoint: mean survival time, dose: 6.25 mg/kg/injection, schedule: Q01DX001 (ip), vehicle: saline with Tween-80): 101 % of control
- T/C (endpoint: mean survival time, dose: 12.5 mg/kg/injection, schedule: Q01DX001 (ip), vehicle: saline with Tween-80): 111 % of control
- T/C (endpoint: mean survival time, dose: 25.0 mg/kg/injection, schedule: Q01DX001 (ip), vehicle: saline with Tween-80): 112 % of control

SMILES: O=C1C2(CCCCC2)C(=O)C12CCCCC2
- T/C [4]: 96 % of control
- T/C [1]: 110 % of control
- T/C [2]: 93 % of control

SMILES: NCCc1cc(O)c(O)c(O)c1
- T/C (endpoint: mean survival time, dose: 12.5 mg/kg/injection, schedule: Q01DX009 (ip), vehicle: saline): 96 % of control and 100 % of control
- T/C (endpoint: mean survival time, dose: 25.0 mg/kg/injection, schedule: Q01DX009 (ip), vehicle: saline): 100 % of control and 102 % of control
- T/C (endpoint: mean survival time, dose: 50.0 mg/kg/injection, schedule: Q01DX009 (ip), vehicle: saline): 103 % of control and 106 % of control
- T/C (endpoint: mean survival time, dose: 100.0 mg/kg/injection, schedule: Q01DX009 (ip), vehicle: saline): 122 % of control
- T/C (endpoint: mean survival time, dose: 200.0 mg/kg/injection, schedule: Q01DX009 (ip), vehicle: saline): 119 % of control and 124 % of control
- T/C (endpoint: mean survival time, dose: 400.0 mg/kg/injection, schedule: Q01DX009 (ip), vehicle: saline): 119 % of control

SMILES: Nc1ccc(CNC(=O)Nc2ccc(S(=O)(=O)F)cc2)cc1
- T/C (endpoint: mean survival time, dose: 25.0 mg/kg/injection, schedule: Q04DX003 (ip), vehicle: saline with Tween-80): 95 % of control
- T/C (endpoint: mean survival time, dose: 50.0 mg/kg/injection, schedule: Q04DX003 (ip), vehicle: saline with Tween-80): 91 % of control
- T/C [5]: 110 % of control
- T/C [7]: 92 % of control
- T/C [6]: 92 % of control

SMILES: O=[N+]([O-])c1ccc(Cl)c2ncccc12
- T/C [5]: 101 % of control
- T/C [7]: 104 % of control

SMILES: O=C(O)CC(NC(=O)CP(=O)(O)O)C(=O)O.[NH-]C1CCCCC1[NH-].[Pt+2] (configuration not stated)
- T/C (endpoint: mean survival time, dose: 3.12 mg/kg/injection, schedule: Q01DX009 (ip), vehicle: dextrose): 238 % of control
- T/C (endpoint: mean survival time, dose: 6.25 mg/kg/injection, schedule: Q01DX009 (ip), vehicle: dextrose): 274 % of control
- T/C (endpoint: mean survival time, dose: 7.9 mg/kg/injection, schedule: Q04DX003 (ip), vehicle: saline): 122 % of control
- T/C (endpoint: mean survival time, dose: 8.0 mg/kg/injection, schedule: Q04DX003 (ip), vehicle: dextrose): 231 % of control
- T/C (endpoint: mean survival time, dose: 11.9 mg/kg/injection, schedule: Q04DX003 (ip), vehicle: dextrose): 280 % of control
- T/C (endpoint: mean survival time, dose: 12.0 mg/kg/injection, schedule: Q04DX003 (ip), vehicle: dextrose): 174 % of control
- T/C (endpoint: mean survival time, dose: 12.5 mg/kg/injection, schedule: Q01DX009 (ip), vehicle: dextrose): 92 % of control
- T/C (endpoint: mean survival time, dose: 17.89 mg/kg/injection, schedule: Q04DX003 (ip), vehicle: dextrose): 237 % of control
- T/C (endpoint: mean survival time, dose: 18.0 mg/kg/injection, schedule: Q04DX003 (ip), vehicle: dextrose): 225 % of control
- T/C (endpoint: mean survival time, dose: 26.7 mg/kg/injection, schedule: Q04DX003 (ip), vehicle: dextrose): 184 % of control
- T/C (endpoint: mean survival time, dose: 26.7 mg/kg/injection, schedule: Q04DX003 (ip), vehicle: saline): 260 % of control
- T/C (endpoint: mean survival time, dose: 40.0 mg/kg/injection, schedule: Q04DX003 (ip), vehicle: dextrose): 265 % of control
- T/C (endpoint: mean survival time, dose: 40.0 mg/kg/injection, schedule: Q04DX003 (ip), vehicle: saline): 298 % of control
- T/C (endpoint: mean survival time, dose: 60.0 mg/kg/injection, schedule: Q04DX003 (ip), vehicle: dextrose): 194 % of control
- T/C (endpoint: mean survival time, dose: 60.0 mg/kg/injection, schedule: Q04DX003 (ip), vehicle: saline): 306 % of control
- T/C (endpoint: mean survival time, dose: 90.0 mg/kg/injection, schedule: Q04DX003 (ip), vehicle: dextrose): 169 % of control
- T/C (endpoint: median survival time, dose: 2.0 mg/kg/injection, schedule: Q01DX009 (ip), vehicle: dextrose): 209 % of control
- T/C (endpoint: median survival time, dose: 4.0 mg/kg/injection, schedule: Q01DX009 (ip), vehicle: dextrose): 262 % of control
- T/C (endpoint: median survival time, dose: 9.0 mg/kg/injection, schedule: Q01DX009 (ip), vehicle: dextrose): 177 % of control
- T/C (endpoint: median survival time, dose: 10.0 mg/kg/injection, schedule: Q01DX001 (ip), vehicle: dextrose): 182 % of control
- T/C (endpoint: median survival time, dose: 15.0 mg/kg/injection, schedule: Q01DX001 (ip), vehicle: other): 201 % of control
- T/C (endpoint: median survival time, dose: 17.98 mg/kg/injection, schedule: Q04DX003 (ip), vehicle: dextrose): 208 % of control
- T/C (endpoint: median survival time, dose: 20.0 mg/kg/injection, schedule: Q01DX001 (ip), vehicle: dextrose): 206 % of control
- T/C (endpoint: median survival time, dose: 27.0 mg/kg/injection, schedule: Q04DX003 (ip), vehicle: dextrose): 220 % of control
- T/C (endpoint: median survival time, dose: 30.0 mg/kg/injection, schedule: Q01DX001 (ip), vehicle: other): 681 % of control
- T/C (endpoint: median survival time, dose: 40.0 mg/kg/injection, schedule: Q01DX001 (ip), vehicle: dextrose): 188 % of control
